Columns and labels:
[1] = tested on: A549-ACE2 infected with SARS-CoV-2; experiment: cell count relative to DMSO; higher = less toxic; conditions: 24 h
A549-ACE2 = experiment: drug-induced phospholipidosis relative to tamoxifen; higher = more phospholipidosis
Caco-2 [2] = experiment: drug sensitivity score (DSS) for viability; higher = more toxic; extreme values may be limits of the assay; conditions: 72 h
U2OS [3] = experiment: as above; conditions: 72 h
HepG2 [4] = experiment: as above; conditions: 72 h
Vero E6 [5] = experiment: as above; conditions: 72 h
[6] = tested on: A549-ACE2 infected with SARS-CoV-2; experiment: morphology score (similarity to uninfected cells); higher = more like uninfected cells; conditions: 24 h
[7] = tested on: A549-ACE2 infected with SARS-CoV-2; experiment: SARS-CoV-2 infection rate relative to DMSO; higher = more infection; conditions: 24 h
Caco-2 [8] = experiment: relative viability EC50 (midpoint between 100% and the lowest measured viability); higher = less toxic; conditions: 72 h
U2OS [9] = experiment: as above; conditions: 72 h
HepG2 [10] = experiment: as above; conditions: 72 h
Vero E6 [11] = experiment: as above; conditions: 72 h
Caco-2 [12] = experiment: cell viability relative to DMSO; higher = less toxic; conditions: 72 h
U2OS [13] = experiment: as above; conditions: 72 h
HepG2 [14] = experiment: as above; conditions: 72 h
Vero E6 [15] = experiment: as above; conditions: 72 h
Calu-3 [16] = experiment: drug sensitivity score (DSS) for viability; higher = more toxic; extreme values may be limits of the assay; conditions: 72 h
Calu-3 [17] = experiment: relative viability EC50 (midpoint between 100% and the lowest measured viability); higher = less toxic; conditions: 72 h
Calu-3 [18] = experiment: cell viability relative to DMSO; higher = less toxic; conditions: 72 h

CCCC[C@@H](C=O)NC(=O)[C@H](CC(C)C)NC(=O)OCc1ccccc1 [calpeptin]
Conditions | SARS-CoV-2 infection rate, [7] [%] | cell count, [1] [%] | cell viability, Caco-2 [12] [%] | cell viability, HepG2 [14] [%] | cell viability, U2OS [13] [%] | cell viability, Vero E6 [15] [%] | morphology score, [6]
1 nM | – | – | 96.8 | 99.8 | 104 | 97.5 | –
10 nM | – | – | 97 | 95.1 | 98.8 | 99.6 | –
100 nM | – | – | 100 | 98.2 | 103 | 102 | –
0.3 µM | 56 | 114 | – | – | – | – | 0.69
1000 nM | – | – | 94.5 | 98.3 | 95.8 | 98 | –
3 µM | 29 | 120 | – | – | – | – | 0.91
10 µM | 13 | 123 | – | – | – | – | 0.9
10000 nM | – | – | 97.7 | 92.2 | 96.4 | 92.1 | –
30 µM | 8 | 118 | – | – | – | – | 0.77

drug-induced phospholipidosis [%], A549-ACE2
Conditions | 0.3 µM | 0.833333 µM | 3.33333 µM | 6.66667 µM | 10 µM | 30 µM
24 h | 5.73 | 6.24 | 10.6 | 21.3 | 26.2 | 64.5
48 h | 3.11 | 2.48 | 7.49 | 16.9 | 26.6 | 77.2
72 h | 4.92 | 2.16 | 4.48 | 13.5 | 24.6 | 87.8

Conditions | drug sensitivity score | relative viability EC50 [µM]
Caco-2 [2] | 0 | –
Caco-2 [8] | – | > 10
HepG2 [4] | 0 | –
HepG2 [10] | – | > 10
U2OS [3] | 0 | –
U2OS [9] | – | > 10
Vero E6 [5] | 0 | –
Vero E6 [11] | – | > 10

CN(NC(=O)CC(=O)NN(C)C(=S)c1ccccc1)C(=S)c1ccccc1 [elesclomol]
Conditions | SARS-CoV-2 infection rate, [7] [%] | cell count, [1] [%] | cell viability, Caco-2 [12] [%] | cell viability, Calu-3 [18] [%] | cell viability, HepG2 [14] [%] | cell viability, U2OS [13] [%] | cell viability, Vero E6 [15] [%] | morphology score, [6]
1 nM | – | – | 93.9 | 107 | 93.4 | 89.6 | 91.5 | –
10 nM | – | – | 74.4 | 83.6 | 99.4 | 89.5 | 96.7 | –
100 nM | – | – | 7 | 68.7 | 69.2 | 56.9 | 69.1 | –
0.3 µM | 93 | 93 | – | – | – | – | – | 0.17
1000 nM | – | – | 9.7 | 29.6 | 66.7 | 7.8 | 41.7 | –
3 µM | 68 | 104 | – | – | – | – | – | 0.63
10 µM | 99 | 107 | – | – | – | – | – | 0.52
10000 nM | – | – | 4.1 | 99.4 | 82.1 | 90.6 | 86 | –
30 µM | 86 | 100 | – | – | – | – | – | 0.39

A549-ACE2
Conditions | drug-induced phospholipidosis [%]
0.3 µM, 24 h | 12.3
0.833333 µM, 24 h | 9.68
3.33333 µM, 24 h | 7.09
6.66667 µM, 24 h | 7.28
10 µM, 24 h | 9.51
30 µM, 24 h | 2.54
30 µM, 48 h | 6.18
30 µM, 72 h | 10

Conditions | drug sensitivity score | relative viability EC50 [µM]
Caco-2 [2] | 32.2 | –
Caco-2 [8] | – | 0.0174
Calu-3 [16] | 0 | –
Calu-3 [17] | – | > 10
HepG2 [4] | 9.7 | –
U2OS [3] | 21.4 | –
U2OS [9] | – | 0.1
Vero E6 [5] | 8.7 | –
Vero E6 [11] | – | 0.637

COc1cccc(CCc2ccccc2OCC(CN(C)C)OC(=O)CCC(=O)O)c1 (configuration not stated) [sarpogrelate]
Conditions | drug sensitivity score | relative viability EC50 [µM]
Caco-2 [2] | 0 | –
Caco-2 [8] | – | > 10
Calu-3 [16] | 0 | –
Calu-3 [17] | – | > 10
HepG2 [4] | 0 | –
HepG2 [10] | – | > 10
U2OS [3] | 0 | –
U2OS [9] | – | > 10
Vero E6 [5] | 0 | –
Vero E6 [11] | – | > 10

cell viability [%]
Conditions | Caco-2 [12] | Calu-3 [18] | HepG2 [14] | U2OS [13] | Vero E6 [15]
1 nM | 92.1 | 96.5 | 109 | 100 | 105
10 nM | 101 | 98.3 | 104 | 105 | 98.6
100 nM | 98.4 | 96.4 | 105 | 99.8 | 104
1000 nM | 105 | 102 | 92.5 | 103 | 100
10000 nM | 98.2 | 96.9 | 102 | 95.3 | 95.8

CCOC(=O)[C@H](CCc1ccccc1)N[C@H]1CS[C@H](c2cccs2)CN(CC(=O)O)C1=O [temocapril]
Conditions | drug sensitivity score | relative viability EC50 [µM]
Caco-2 [2] | 0 | –
Caco-2 [8] | – | > 10
Calu-3 [16] | 0 | –
Calu-3 [17] | – | > 10
HepG2 [4] | 0 | –
HepG2 [10] | – | > 10
U2OS [3] | 0 | –
U2OS [9] | – | > 10
Vero E6 [5] | 0 | –
Vero E6 [11] | – | > 10

cell viability [%]
Conditions | Caco-2 [12] | Calu-3 [18] | HepG2 [14] | U2OS [13] | Vero E6 [15]
1 nM | 99.4 | 93.8 | 103 | 97.7 | 98.8
10 nM | 95.8 | 108 | 98.6 | 101 | 105
100 nM | 93.2 | 95.5 | 108 | 94.2 | 109
1000 nM | 93.3 | 103 | 96.7 | 99.2 | 91.3
10000 nM | 105 | 102 | 112 | 95.4 | 97.8

C[N+](C)(C)[C@@H](Cc1c[nH]c(=S)[nH]1)C(=O)O [L-ergothioneine]
Conditions | drug sensitivity score | relative viability EC50 [µM]
Caco-2 [2] | 0 | –
Caco-2 [8] | – | > 10
Calu-3 [16] | 0 | –
Calu-3 [17] | – | > 10
HepG2 [4] | 0.7 | –
HepG2 [10] | – | > 10
U2OS [3] | 0 | –
U2OS [9] | – | > 10
Vero E6 [5] | 0 | –
Vero E6 [11] | – | > 10

cell viability [%]
Conditions | Caco-2 [12] | Calu-3 [18] | HepG2 [14] | U2OS [13] | Vero E6 [15]
1 nM | 100 | 97.2 | 83.4 | 96 | 94.3
10 nM | 101 | 97.7 | 88.9 | 94.1 | 94.9
100 nM | 114 | 95.2 | 102 | 98.2 | 96.5
1000 nM | 105 | 108 | 98.8 | 92.4 | 109
10000 nM | 97.3 | 95.4 | 80.4 | 95.6 | 106

O=C(O)C(=O)c1cn(Cc2ccccc2)c2ccc(-c3ccc(OC(F)(F)F)cc3)cc12 [tiplaxtinin]
Conditions | drug sensitivity score | relative viability EC50 [µM]
Caco-2 [2] | 0 | –
Caco-2 [8] | – | > 10
Calu-3 [16] | 0 | –
Calu-3 [17] | – | > 10
HepG2 [4] | 0 | –
HepG2 [10] | – | > 10
U2OS [3] | 0 | –
U2OS [9] | – | > 10
Vero E6 [5] | 0.7 | –
Vero E6 [11] | – | > 10

cell viability [%]
Conditions | Caco-2 [12] | Calu-3 [18] | HepG2 [14] | U2OS [13] | Vero E6 [15]
1 nM | 104 | 113 | 104 | 94.5 | 108
10 nM | 106 | 95.5 | 98.8 | 92.1 | 106
100 nM | 102 | 96.8 | 102 | 104 | 96.6
1000 nM | 92.2 | 98.6 | 93.8 | 94.7 | 98.2
10000 nM | 92.8 | 104 | 93.1 | 96.5 | 81.3
